Measured values from article PMC6107105, “Update on drug development targeting parasite cysteine proteases” (PLoS Neglected Tropical Diseases, 2018).

Legend:
rats = test: 7-Day non-GLP Toxicity Study in Rats (SRI study M587-08); format: in vivo; conditions: 50 or 150 mg/Kg/day for 7 days
Sprague-Dawley rats [1] = test: 14-day GLP toxicity study in Sprague-Dawley rats (SRI study M602-08); format: in vivo
[2] = design: species or system NHPs; conditions: in vivo, 200 mg/kg
Sprague-Dawley rats [3] = test: Acute intravenous non-GLP toxicity study in rats (SRI study M001-98); format: in vivo; conditions: male and female Sprague-Dawley rats
cynomolgus monkeys = test: Pilot multiple dose safety/pharmacokinetic 7-day non-GLP study in cynomolgus monkeys (SRI study M158-01); format: in vivo; conditions: 200 mg/Kg once daily for 7 days
dogs = test: 7-day non-GLP toxicity study in dogs (SRI study M138-00); format: in vivo; conditions: orally as solid in gelatin capsules, 100 mg/kg daily for 7 days, 2 dogs

SMILES: CN1CCN(C(=O)N[C@@H](Cc2ccccc2)C(=O)N[C@H](/C=C/S(=O)(=O)c2ccccc2)CCc2ccccc2)CC1.Cl [K777 HCl]
- tolerability (rats; male and female rats, SRI study M587-08): well tolerated
- liver effects at the doses employed (rats; rats): mild and transient
- target organ of toxicity (rats; rats): liver
- mortality or treatment-related adverse clinical signs (Sprague-Dawley rats [1]; 14-day, any dose level, SRI study M602-08): No mortality or treatment-related adverse clinical signs were observed following the administration of K777 HCl at any dose level.
- changes in clinical chemistry parameters (total protein, potassium, phosphorus, creatinine increases; blood urea nitrogen decrease) (Sprague-Dawley rats [1]; rat, in vivo): not considered biologically significant
- effects on hematology, urinalysis, or ophthalmology parameters (Sprague-Dawley rats [1]; rat, in vivo): no treatment-related adverse effects
- histopathology (Sprague-Dawley rats [1]; rat, in vivo): No treatment-related histopathological abnormalities
- AUC [2]: 32500 ng·h/mL
- Cmax [2]: 4500 ng/mL
- Tmax [2]: 4 h
- half-life [2]: ~4 h
- dose producing mortality and adverse clinical signs (Sprague-Dawley rats [3]): K777 HCl administered IV to male and female Sprague-Dawley rats produced mortality and adverse clinical signs at 150 mg/Kg and higher.
- mortality or morbidity (cynomolgus monkeys): No mortality or morbidity was observed following the administration of K777 HCl at 200 mg/Kg once daily for 7 days.
- mortality or morbidity (dogs): K777 HCl was administered orally as a solid in gelatin capsules to 2 dogs (1 male and 1 female) at 100 mg/kg daily for 7 days. No mortality or morbidity was observed in this study.
